From US7498349B2, “Biaryl compounds having anti-infective activity” (Genesoft Pharmaceuticals, Inc., priority 2002, dated 2009)

Columns and labels:
B. cereus ATCC 11778 = assay: MIC, NCCLS broth microdilution assay; format: cell-based, Bacillus cereus; details: B. cereus ATCC 11778
C. albicans ATCC 38247 = assay: MIC, antifungal assay; format: cell-based, Candida albicans; details: C. albicans ATCC 38247
E. faecalis ATCC 29212 = assay: MIC, NCCLS broth microdilution assay; format: cell-based, Enterococcus faecalis; details: E. faecalis ATCC 29212
S. aureus ATCC 13709 = assay: MIC, NCCLS broth microdilution assay; format: cell-based, Staphylococcus aureus; details: S. aureus ATCC 13709, methicillin sensitive strain (MSSA)
Excerpt: (§1) In vitro biological activity data were collected for a variety of microorganisms, including Bacillus cereus (ATCC 11778), Staphylococcus aureus (ATCC 33591; ATCC 27660, a methicillin resistant strain (MRSA); ATCC 13709, a methicillin sensitive strain (MSSA)), Escherichia coli (ATCC 25922), Enterococcus faecalis (ATCC 29212), Streptococcus pneumoniae (ATCC 49619; ATCC 51422, a penicillin resistant strain (PRSP)), Enterococcus faecium (ATCC 51559, a vancomycin resistant strain (VRE)), and Staphylococcus epidermidis (ATCC 12228).
(§2) The minimal inhibition concentration (MIC) of these compounds was determined using the National Committee for Clinical Laboratory Standards (NCCLS) broth microdilution assay in microtiter plates, as set forth in: (1) the guidelines of the National Committee for Clinical Laboratory Standards (NCCLS) Document M7-A4 (NCCLS, 1997); (2) the guidelines of the National Committee for Clinical Laboratory Standards (NCCLS) Document M11-A4 (NCCLS, 1997); and (3) the guidelines and reference method of the National Committee for Clinical Laboratory Standards (NCCLS) Document M27 -T (NCCLS, 1995).

S. aureus ATCC 27660 = assay: MIC, NCCLS broth microdilution assay; format: cell-based, Staphylococcus aureus; details: S. aureus ATCC 27660, methicillin resistant strain (MRSA)
Excerpt: as §1, §2

S. aureus ATCC 33591 = assay: MIC, NCCLS broth microdilution assay; format: cell-based, Staphylococcus aureus; details: S. aureus ATCC 33591
Excerpt: as §1, §2

S. pneumoniae ATCC 49619 = assay: MIC, NCCLS broth microdilution assay; format: cell-based, Streptococcus pneumoniae; details: S. pneumoniae ATCC 49619
E. coli ATCC 25922 = assay: MIC, NCCLS broth microdilution assay; format: cell-based, Escherichia coli; details: E. coli ATCC 25922

Row | Compound | Minimum Inhibitory Concentration (MIC) (B. cereus ATCC 11778) | Minimum Inhibitory Concentration (MIC) (C. albicans ATCC 38247) | Minimum Inhibitory Concentration (MIC) (E. faecalis ATCC 29212) | Minimum Inhibitory Concentration (MIC) (S. aureus ATCC 13709) | Minimum Inhibitory Concentration (MIC) (S. aureus ATCC 27660) | Minimum Inhibitory Concentration (MIC) (S. aureus ATCC 33591) | Minimum Inhibitory Concentration (MIC) (S. pneumoniae ATCC 49619) | Minimum Inhibitory Concentration (MIC) (E. coli ATCC 25922)
1 | CN(C)CCCNc1cc(Cl)ccc1C(=O)Nc1ccc(-c2cc3ccccc3o2)nc1 [Compound A-44] | ++ (4 < MIC < 12) | ++ (4 < MIC < 12) | ++ (4 < MIC < 12) | ++ (4 < MIC < 12) | ++ (4 < MIC < 12) | ++ (4 < MIC < 12) | + (12 ≦ MIC ≦ 32) | >32 µg/mL
2 | O=C(Nc1ccc(-c2cc3ccccc3o2)nc1)c1nsc(NCCN2CCNCC2)c1Cl [Compound A-35] | >32 µg/mL | +++ (MIC ≦ 4) | + (12 ≦ MIC ≦ 32) | + (12 ≦ MIC ≦ 32) | + (12 ≦ MIC ≦ 32) | >32 µg/mL | >32 µg/mL | >32 µg/mL
3 | NCCN1CCN(c2ncccc2C(=O)Nc2ccc(-c3cc4ccccc4o3)cc2)CC1 [Compound A-17] | + (12 ≦ MIC ≦ 32) | + (12 ≦ MIC ≦ 32) | + (12 ≦ MIC ≦ 32) | ++ (4 < MIC < 12) | + (12 ≦ MIC ≦ 32) |  | + (12 ≦ MIC ≦ 32) | >32 µg/mL
4 | O=C(Nc1ccc(-c2cc3ccccc3o2)cc1)c1cccnc1NCCN1CCSCC1 [Compound A-14] | >32 µg/mL | >32 µg/mL | >32 µg/mL | >32 µg/mL | >32 µg/mL |  | >32 µg/mL | >32 µg/mL
5 | Cc1ccc2nc(-c3ccc(NC(=O)c4nsc(NCCCN(C)CCCN)c4Cl)cc3)sc2c1 [Compound A-51] | +++ (MIC ≦ 4) | +++ (MIC ≦ 4) | +++ (MIC ≦ 4) | +++ (MIC ≦ 4) | +++ (MIC ≦ 4) |  | +++ (MIC ≦ 4) | >32 µg/mL
6 | O=C(Nc1ccc(-c2cc3ccccc3o2)cc1)c1cccnc1NCCCN1CCOCC1 [Compound A-16] | >32 µg/mL | + (12 ≦ MIC ≦ 32) | ++ (4 < MIC < 12) | +++ (MIC ≦ 4) | +++ (MIC ≦ 4) |  | + (12 ≦ MIC ≦ 32) | >32 µg/mL
7 | NCCCNc1ncccc1C(=O)Nc1ccc(-c2cc3ccccc3o2)cc1 [Compound A-9] | +++ (MIC ≦ 4) | + (12 ≦ MIC ≦ 32) | +++ (MIC ≦ 4) | +++ (MIC ≦ 4) | +++ (MIC ≦ 4) |  | + (12 ≦ MIC ≦ 32) | + (12 ≦ MIC ≦ 32)
8 | O=C(Nc1ccc(-c2cc3ccccc3o2)cc1)c1cccnc1NCCN1CCCCC1 [Compound A-13] | +++ (MIC ≦ 4) | + (12 ≦ MIC ≦ 32) | +++ (MIC ≦ 4) | +++ (MIC ≦ 4) | +++ (MIC ≦ 4) |  | + (12 ≦ MIC ≦ 32) | >32 µg/mL
9 | Cc1ccc2nc(-c3ccc(NC(=O)c4nsc(NCCN)c4Cl)cc3)sc2c1 [Compound A-52] | + (12 ≦ MIC ≦ 32) | >32 µg/mL | +++ (MIC ≦ 4) | +++ (MIC ≦ 4) |  | +++ (MIC ≦ 4) | >32 µg/mL | >32 µg/mL
10 | O=C(Nc1ccc(-c2cc3ccccc3o2)cc1)c1nsc(NCCN2CCNCC2)c1Cl [Compound A-1] | +++ (MIC ≦ 4) | + (12 ≦ MIC ≦ 32) | +++ (MIC ≦ 4) | +++ (MIC ≦ 4) | +++ (MIC ≦ 4) |  | + (12 ≦ MIC ≦ 32) | >32 µg/mL
11 | O=C(Nc1ccc(-c2cc3ccccc3o2)cc1)c1cccnc1N1CCNCC1 [Compound A-20] | + (12 ≦ MIC ≦ 32) | ++ (4 < MIC < 12) | + (12 ≦ MIC ≦ 32) | ++ (4 < MIC < 12) | ++ (4 < MIC < 12) |  | + (12 ≦ MIC ≦ 32) | + (12 ≦ MIC ≦ 32)
12 | O=C(Nc1ccc(-c2cc3ccccc3o2)cc1)c1cccnc1NCCN1CCCC1 [Compound A-15] | ++ (4 < MIC < 12) | + (12 ≦ MIC ≦ 32) | +++ (MIC ≦ 4) | +++ (MIC ≦ 4) | +++ (MIC ≦ 4) |  | + (12 ≦ MIC ≦ 32) | >32 µg/mL
13 | CCN(CC)CCCNc1snc(C(=O)Nc2ccc(-c3cc4ccccc4o3)cc2)c1Cl [Compound A-5] | ++ (4 < MIC < 12) | ++ (4 < MIC < 12) | +++ (MIC ≦ 4) | +++ (MIC ≦ 4) | +++ (MIC ≦ 4) |  | >32 µg/mL | >32 µg/mL
14 | O=C(Nc1ccc(-c2cc3ccccc3o2)cc1)c1cccnc1NCCN1CCNCC1 [Compound A-10] | + (12 ≦ MIC ≦ 32) | >32 µg/mL | + (12 ≦ MIC ≦ 32) |  |  |  | + (12 ≦ MIC ≦ 32) | >32 µg/mL
15 | NCCOCCOCCNc1snc(C(=O)Nc2ccc(-c3cc4ccccc4o3)cc2)c1Cl [Compound A-6] | >32 µg/mL | ++ (4 < MIC < 12) | +++ (MIC ≦ 4) | +++ (MIC ≦ 4) | +++ (MIC ≦ 4) |  | >32 µg/mL | >32 µg/mL
16 | NCCOCCOCCNc1ncccc1C(=O)Nc1ccc(-c2cc3ccccc3o2)cc1 [Compound A-22] | ++ (4 < MIC < 12) | +++ (MIC ≦ 4) | ++ (4 < MIC < 12) | ++ (4 < MIC < 12) | ++ (4 < MIC < 12) |  | + (12 ≦ MIC ≦ 32) | >32 µg/mL
17 | NCCCCNc1snc(C(=O)Nc2ccc(-c3cc4ccccc4o3)cc2)c1Cl [Compound A-4] | + (12 ≦ MIC ≦ 32) | + (12 ≦ MIC ≦ 32) | +++ (MIC ≦ 4) | +++ (MIC ≦ 4) | +++ (MIC ≦ 4) |  | >32 µg/mL | >32 µg/mL
